Source: patent US10632149B2, “Drug based on maghemite for simultaneous reduction of gastrointestinal sodium resorption and phosphate resorption” (CHARITÉ-UNIVERSITAETSMEDIZIN BERLIN, priority 2014, dated 2020)

System: healthy rats
Conditions: rat, in vivo
Description: Male rats of the breed Sprague Dawley from Charles River were used at the beginning of the experiment with weight of 200 g (n=8) per group listed below. […] Then for another 4 weeks (week 2-5), the feed mentioned above ad libitum with active substance additive. On the last day of each experiment week, the animals were kept individually in a metabolic cage for 24 hours (day 6 to day 7). Feces and urine were collected. Blood was obtained only on the last collection day. Blood and urine samples were examined by Synlab GmbH.
The groups received as follows from week 2-5 additives per 100 g feed Group A control—no additives
Group B adjuvants—addition of 0.2 g of mannitol and each 0.9 g of inulin and gum arabic
Group D Velphoro®—based on iron as an additive to the feed 250 mg of iron
Group E Fosrenol®—based on lanthanum as an additive to the feed 250 mg lanthanum
Group F Renvela®—based on Sevelamer carbonate 500 mg

For sucroferric oxyhydroxide [Velphoro®], the “Feces excretion 24 hours Weight” value was 17.1 ± 6.2 g and the “Urine volumes 24 hours” value was 16.1 ± 3.6 mL.
